Measurements taken from patent publication US10780101B2, “Amide derivatives of squalamine for the treatment of infections” (VIRBAC, priority 2016, dated 2020).
≈ marks a conversion by molar mass, not a printed value. Where two headings read alike, the source gives them in different places.

Tests used:
[1] = test system: S. aureus Human ATCC 25923; experiment: MIC determination, S. aureus human ATCC 25923; assay type: cell-based; conditions: Staphylococcus aureus, ATCC25923; Gram-positive; Mueller-Hinton medium, 24 h at 37° C.
Summary of the method: (§1)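 Broth microdilution in Mueller-Hinton medium, inoculum at OD 0.01, compounds (5 mg/mL stock in DMSO/methanol 50/50) serially diluted twofold. Plates incubated 24 h at 37° C. under humid atmosphere, read at OD 620 nm for MIC; duplicates.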

S. aureus Animal (340) = experiment: MIC determination, S. aureus animal (340); assay type: cell-based; conditions: Staphylococcus aureus; Gram-positive; Mueller-Hinton medium, 24 h at 37° C.
Summary of the method: as §1

[2] = test system: S. intermedius Animal (1051997); experiment: MIC determination, S. intermedius animal (1051997); assay type: cell-based; conditions: Staphylococcus intermedius; Gram-positive; Mueller-Hinton medium, 24 h at 37° C.
Summary of the method: as §1

[3] = test system: E. faecalis Human ATCC 29212; experiment: MIC determination, E. faecalis human ATCC 29212; assay type: cell-based; conditions: Enterococcus faecalis, ATCC29212; Gram-positive; Mueller-Hinton medium, 24 h at 37° C.
Summary of the method: as §1

E. coli Human ATCC 28922 = experiment: MIC determination, E. coli human ATCC 28922; assay type: cell-based; conditions: Escherichia coli, ATCC28922; Gram-negative; Mueller-Hinton medium, 24 h at 37° C.
Summary of the method: as §1

E. coli Animal (1956) = experiment: MIC determination, E. coli animal (1956); assay type: cell-based; conditions: Escherichia coli; Gram-negative; Mueller-Hinton medium, 24 h at 37° C.
Summary of the method: as §1

[4] = test system: P. aeruginosa Human ATCC 27853; experiment: MIC determination, P. aeruginosa human ATCC 27853; assay type: cell-based; conditions: Pseudomonas aeruginosa, ATCC27853; Gram-negative; Mueller-Hinton medium, 24 h at 37° C.
Summary of the method: as §1

[5] = test system: P. aeruginosa Animal (1051575); experiment: MIC determination, P. aeruginosa animal (1051575); assay type: cell-based; conditions: Pseudomonas aeruginosa; Gram-negative; Mueller-Hinton medium, 24 h at 37° C.
Summary of the method: as §1

CHO-K1 cells = experiment: WST1 cytotoxicity test on CHO-K1 cells; assay type: cell-based, Chinese hamster; conditions: Cricetulus griseus, read-out: IC50 (μg/mL) CHO
Summary of the method: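 CHO-K1 cells pre-grown 24 h, then exposed to increasing compound concentrations in duplicate for 24 h at 37° C, 5% CO2. Viability read after 20 min with 10% WST-1 in PBS at 450 nm; IC50 from nonlinear regression as concentration cutting viability 50%.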

P. aeruginosa (1051575) [6] = experiment: Potentiation of doxycycline activity (combination MIC); assay type: cell-based, Pseudomonas aeruginosa; conditions: in presence of doxycycline 2 μg/mL; 24 hours at 37° C.
P. aeruginosa (1051575) [7] = experiment: Potentiation of erythromycin activity (combination MIC); assay type: cell-based, Pseudomonas aeruginosa; conditions: erythromycin 2 μg/mL; concentration of compound required to restore antibiotic activity
Description: (§2) This method requires the use of a 96-well plate: 100 μL of a liquid culture medium are placed in each well and then seeded with the microbial suspension prepared previously. The required volume to be seeded is calculated for an OD of 0.01, which corresponds to about 5×10^6 bacteria in each well. In this plate, the first line corresponds to a negative control (200 μL of sterile culture medium in each well), the second line corresponds to a positive control (100 μL of sterile culture medium+100 μL of the bacterial suspension), and the third line contains 192 μL of culture medium; 8 μL of compound of formula (I) to be tested are placed in each well. Thereafter, a cascade dilution is performed from this line. L of a doxycycline solution (1 mg dissolved in 20 mL) are then added to each well of lines 3 to 8 to obtain a final antibiotic concentration of 2 μg/mL. 92 μL of bacterial suspension are then added to lines 3 to 8. The results are read (the determination of the MIC (2 μg/mL of doxycycline) in the presence of X g/mL of compound of formula (I)) after 24 hours of incubation at 37° C. under a humid atmosphere. After 24 hours of incubation at 37° C., 40 μL of nitro tetrazolium iodide are added to each well to reveal the presence of live bacteria by staining the medium pink.
The procedure is identical to that indicated in Example 5 above. 8 μL of an antibiotic solution under consideration (1 mg dissolved in 20 mL) are added to obtain a final antibiotic concentration of 2 μg/mL instead of 8 μL of a doxycycline solution.
(§3) The results are given in table V. They indicate the concentration of compound of formula (I) required to be able to restore the activity of the antibiotic under consideration.

P. aeruginosa (1051575) [8] = experiment: Potentiation of chloramphenicol activity (combination MIC); assay type: cell-based, Pseudomonas aeruginosa; conditions: chloramphenicol 2 μg/mL; concentration of compound required to restore antibiotic activity
Description: as §2, with “L of a doxycycline solution (1 mg dissolved in 20 mL) are then added to each well of lines 3 to 8 to obtain a final antibiotic concentration of 2 μg/mL.” left out
The procedure is identical to that indicated in Example 5 above. […]
as §3

| SMILES | MIC [1] [µg/mL] | MIC (S. aureus Animal (340)) [µg/mL] | MIC [2] [µg/mL] | MIC [3] [µg/mL] | MIC (E. coli Human ATCC 28922) [µg/mL] | MIC (E. coli Animal (1956)) [µg/mL] | MIC [4] [µg/mL] | MIC [5] [µg/mL] | IC50 (CHO-K1 cells; CHO-K1, 24 h) [µg/mL] | MIC - P. aeruginosa (1051575): content of compound of formula (I) to restore the doxycycline activity (at 2 μg/mL) (P. aeruginosa (1051575) [6]) [µg/mL] | MIC P. aeruginosa (1051575) compound + erythromycin (P. aeruginosa (1051575) [7]) [µg/mL] | MIC P. aeruginosa (1051575) compound + chloramphenicol (P. aeruginosa (1051575) [8]) [µg/mL] | IC50 (CHO-K1 cells; Table III, WST1 test, CHO-K1 cells, 24 hours) [µg/mL] |
| --- | --- | --- | --- | --- | --- | --- | --- | --- | --- | --- | --- | --- | --- |
| CC(C)N(C(=O)CC[C@@H](C)[C@H]1CCC2C3C(CC[C@@]21C)[C@@]1(C)CC[C@H](NCCCNCCCCNCCCN)CC1C[C@H]3O)C(C)C (stereo partly drawn) [(50), 3β-spermino-N,N-diisopropylchenodeoxycholamide] | 4 (≈ 6.06 µM) | 2 (≈ 3.03 µM) | 2 (≈ 3.03 µM) | 4 (≈ 6.06 µM) | > 130 | 17 (≈ 25.8 µM) | 17 (≈ 25.8 µM) | 17 (≈ 25.8 µM) | 25 (≈ 37.9 µM) | 2 | 4 | 2 | – |
| CC(C)NC(=O)CC[C@@H](C)[C@H]1CCC2C3C(C[C@H](O)[C@@]21C)[C@@]1(C)CC[C@H](NCCNCCNCCNCCNCCN)CC1C[C@H]3O (stereo partly drawn) [(21), 3β-(pentaethylenehexamine)-N-isopropylcholamide] | 17 (≈ 25.6 µM) | 17 (≈ 25.6 µM) | 8 (≈ 12 µM) | 30 (≈ 45.2 µM) | 130 (≈ 196 µM) | 30 (≈ 45.2 µM) | 130 (≈ 196 µM) | 30 (≈ 45.2 µM) | – | – | 30 | 8 | 60 (≈ 90.4 µM) |
| CC(C)N(C(=O)CC[C@@H](C)[C@H]1CCC2C3C(CC[C@@]21C)[C@@]1(C)CC[C@H](NCCCNCCCN)CC1C[C@H]3O)C(C)C (stereo partly drawn) [(37), 3β-norspermidino-N-diisopropylchenodeoxycholamide] | 4 (≈ 6.79 µM) | 2 (≈ 3.4 µM) | 1 (≈ 1.7 µM) | 4 (≈ 6.79 µM) | 15 (≈ 25.5 µM) | 4 (≈ 6.79 µM) | 30 (≈ 50.9 µM) | 15 (≈ 25.5 µM) | 35 (≈ 59.4 µM) | 2 | 7 | 2 | – |
| C[C@H](CCC(=O)NC1CCCCC1)[C@H]1CCC2C3C(CC[C@@]21C)[C@@]1(C)CC[C@H](NCCCNCCCCNCCCN)CC1C[C@H]3O (stereo partly drawn) [(51), 3β-spermino-N-cyclohexylchenodeoxycholamide] | 4 (≈ 6.08 µM) | 2 (≈ 3.04 µM) | 1 (≈ 1.52 µM) | 2 (≈ 3.04 µM) | 105 (≈ 160 µM) | 16 (≈ 24.3 µM) | 16 (≈ 24.3 µM) | 16 (≈ 24.3 µM) | 13 (≈ 19.8 µM) | 2 | 8 | 2 | – |
| CC(C)NC(=O)CC[C@@H](C)[C@H]1CCC2C3C(C[C@H](O)[C@@]21C)[C@@]1(C)CC[C@H](NCCCN(CCCN)CCCN)CC1C[C@H]3O (stereo partly drawn) [(43), 3β-(tris(3-aminopropyl)amine)-N-isopropylcholamide] | 16 (≈ 25.8 µM) | 16 (≈ 25.8 µM) | 8 (≈ 12.9 µM) | 60 (≈ 96.8 µM) | 125 (≈ 202 µM) | 60 (≈ 96.8 µM) | 125 (≈ 202 µM) | 60 (≈ 96.8 µM) | 38 (≈ 61.3 µM) | 1 | 30 | 4 | – |
| CC(C)NC(=O)CC[C@@H](C)[C@H]1CCC2C3C(CC[C@@]21C)[C@@]1(C)CC[C@H](NCCN(CCN)CCN)CC1C[C@H]3O (stereo partly drawn) [(45), 3β-(tris(2-aminoethyl)amine)-N-isopropylchenodeoxycholamide] | 7 (≈ 12.5 µM) | 4 (≈ 7.12 µM) | 2 (≈ 3.56 µM) | 14 (≈ 24.9 µM) | 110 (≈ 196 µM) | 14 (≈ 24.9 µM) | 110 (≈ 196 µM) | 28 (≈ 49.8 µM) | 60 (≈ 107 µM) | 7 | 28 | 7 | – |
| CC(C)NC(=O)CC[C@@H](C)[C@H]1CCC2C3CCC4C[C@@H](NCCCN(CCCN)CCCN)CC[C@]4(C)C3CC[C@@]21C (stereo partly drawn) [(49), 3β-(tris(3-aminopropyl)amine)-N-isopropyllithocholamide] | 4 (≈ 6.8 µM) | 4 (≈ 6.8 µM) | 2 (≈ 3.4 µM) | 15 (≈ 25.5 µM) | 120 (≈ 204 µM) | 30 (≈ 51 µM) | 120 (≈ 204 µM) | 60 (≈ 102 µM) | 6 (≈ 10.2 µM) | 4 | 30 | 4 | – |
| CC(C)NC(=O)CC[C@@H](C)[C@H]1CCC2C3CCC4C[C@@H](NCCCN(CCCN)CCCN)CC[C@]4(C)C3C[C@H](O)[C@@]21C (stereo partly drawn) [(42), 3β-(tris(3-aminopropyl)amine)-N-isopropyldeoxycholamide] | 4 (≈ 6.62 µM) | 4 (≈ 6.62 µM) | 1 (≈ 1.66 µM) | 30 (≈ 49.7 µM) | > 120 | 30 (≈ 49.7 µM) | 30 (≈ 49.7 µM) | 60 (≈ 99.3 µM) | 40 (≈ 66.2 µM) | 1 | 8 | 2 | – |
